This note sets out measurements from PMC5933747 (PLoS ONE, 2018).

Like-named read-outs stand apart in the source and are kept apart here.

In data set [1] the target is T1, human NaV1.7 (Homo sapiens, UniProt Q15858).
The target of data set [2] is T2, human NaV1.4 (Homo sapiens, UniProt P35499). Description: PatchXpress (PX) automated electrophysiology, human NaV1.4. The data set is classed as cell-based. The settings on record: PX platform IC50 ratio. On the procedure: Human NaV (hNaV) stably transfected cell lines in HEK293 or CHO backgrounds and cell culture methods were as previously described. hNaV1.1-hNaV1.7 cells were obtained from Eurofins Pharma Discovery Services (St. Charles, MO), and hNaV1.8 cells were generated in house. Whole cell patch clamp, PatchXpress, and IWQ electrophysiology voltage protocols as well as DRG neuron isolation were carried out as previously described. NaV1.7-NaV1.5 chimeras were generated and evaluated in BacMam transduced U2-OS cells on the IWQ platform as previously described.

A further data set deals with human NaV1.5 (Homo sapiens, UniProt Q14524). Briefly: IonWorks Quattro (IWQ) electrophysiology, human NaV1.5. The data set is classed as cell-based. A general note: In patch-clamp work, channel activity is measured electrically.
Data set [3] deals with T2, human NaV1.4. Description: IonWorks Quattro (IWQ) electrophysiology, human NaV1.4. The data set is classed as cell-based.
In data set [4] the target is T1, human NaV1.7. Description: IonWorks Quattro (IWQ) electrophysiology, human NaV1.7. It is filed as cell-based.
Where [5] appears, read: read-out: Glu mutant IWQ IC50 NaV1.5.
Setting [6] is: read-out: Glu mutant IWQ IC50 NaV1.4.
The mark [7] stands for this setting: read-out: Glu mutant IWQ IC50 NaV1.7.
Setting [8] is: read-out: Ala mutant IWQ IC50 NaV1.5.
Where [9] appears, read: read-out: Ala mutant IWQ IC50 NaV1.4.
[10] abbreviates: read-out: Ala mutant IWQ IC50 NaV1.7.

T2 sequence (P35499 whole entry): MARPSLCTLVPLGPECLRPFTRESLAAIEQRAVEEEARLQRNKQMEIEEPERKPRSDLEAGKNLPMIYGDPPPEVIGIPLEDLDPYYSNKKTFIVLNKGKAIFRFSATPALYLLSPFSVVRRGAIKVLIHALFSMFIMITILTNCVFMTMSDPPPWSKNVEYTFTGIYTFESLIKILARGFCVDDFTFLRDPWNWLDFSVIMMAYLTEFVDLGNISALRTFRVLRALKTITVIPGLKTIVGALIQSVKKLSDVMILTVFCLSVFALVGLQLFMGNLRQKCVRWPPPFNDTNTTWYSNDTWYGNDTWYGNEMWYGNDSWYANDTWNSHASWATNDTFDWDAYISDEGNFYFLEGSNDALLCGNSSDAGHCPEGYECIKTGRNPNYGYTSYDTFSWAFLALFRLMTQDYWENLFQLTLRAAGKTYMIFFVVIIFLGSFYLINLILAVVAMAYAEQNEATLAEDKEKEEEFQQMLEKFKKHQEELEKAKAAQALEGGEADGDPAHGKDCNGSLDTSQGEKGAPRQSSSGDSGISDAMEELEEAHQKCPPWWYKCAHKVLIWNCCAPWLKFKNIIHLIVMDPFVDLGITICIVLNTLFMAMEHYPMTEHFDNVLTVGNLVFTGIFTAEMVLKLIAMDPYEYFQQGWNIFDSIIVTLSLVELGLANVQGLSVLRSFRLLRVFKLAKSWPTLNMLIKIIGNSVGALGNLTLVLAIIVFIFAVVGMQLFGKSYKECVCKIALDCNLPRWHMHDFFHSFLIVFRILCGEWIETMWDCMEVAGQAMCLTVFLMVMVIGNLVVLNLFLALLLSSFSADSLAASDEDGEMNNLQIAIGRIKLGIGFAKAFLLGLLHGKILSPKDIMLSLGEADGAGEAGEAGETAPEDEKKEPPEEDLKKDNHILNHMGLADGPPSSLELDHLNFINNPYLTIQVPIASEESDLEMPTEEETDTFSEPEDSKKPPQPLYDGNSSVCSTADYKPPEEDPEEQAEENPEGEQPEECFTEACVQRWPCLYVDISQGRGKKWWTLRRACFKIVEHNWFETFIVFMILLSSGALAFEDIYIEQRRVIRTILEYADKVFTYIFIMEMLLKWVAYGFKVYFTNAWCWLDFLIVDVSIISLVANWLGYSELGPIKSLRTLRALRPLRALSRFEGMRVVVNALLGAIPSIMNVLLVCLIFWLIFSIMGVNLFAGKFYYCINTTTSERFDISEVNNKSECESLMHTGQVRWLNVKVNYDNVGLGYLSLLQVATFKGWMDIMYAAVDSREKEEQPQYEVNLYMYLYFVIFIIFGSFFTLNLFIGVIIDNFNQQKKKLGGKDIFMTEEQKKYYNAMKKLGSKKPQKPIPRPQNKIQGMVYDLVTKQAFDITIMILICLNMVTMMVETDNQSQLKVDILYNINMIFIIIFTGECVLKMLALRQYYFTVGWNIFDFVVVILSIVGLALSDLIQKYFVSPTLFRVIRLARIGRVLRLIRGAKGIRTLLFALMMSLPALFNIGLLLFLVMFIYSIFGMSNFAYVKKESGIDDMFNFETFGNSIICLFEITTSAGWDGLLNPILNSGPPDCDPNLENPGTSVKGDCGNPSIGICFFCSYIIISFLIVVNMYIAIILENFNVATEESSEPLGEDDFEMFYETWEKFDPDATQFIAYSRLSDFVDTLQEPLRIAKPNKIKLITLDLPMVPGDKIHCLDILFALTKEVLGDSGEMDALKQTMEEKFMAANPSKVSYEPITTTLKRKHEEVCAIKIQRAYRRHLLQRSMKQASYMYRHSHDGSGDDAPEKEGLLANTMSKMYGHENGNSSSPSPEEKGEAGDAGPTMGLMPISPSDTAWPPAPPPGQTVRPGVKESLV
Sequence of human NaV1.5 (Q14524 whole entry): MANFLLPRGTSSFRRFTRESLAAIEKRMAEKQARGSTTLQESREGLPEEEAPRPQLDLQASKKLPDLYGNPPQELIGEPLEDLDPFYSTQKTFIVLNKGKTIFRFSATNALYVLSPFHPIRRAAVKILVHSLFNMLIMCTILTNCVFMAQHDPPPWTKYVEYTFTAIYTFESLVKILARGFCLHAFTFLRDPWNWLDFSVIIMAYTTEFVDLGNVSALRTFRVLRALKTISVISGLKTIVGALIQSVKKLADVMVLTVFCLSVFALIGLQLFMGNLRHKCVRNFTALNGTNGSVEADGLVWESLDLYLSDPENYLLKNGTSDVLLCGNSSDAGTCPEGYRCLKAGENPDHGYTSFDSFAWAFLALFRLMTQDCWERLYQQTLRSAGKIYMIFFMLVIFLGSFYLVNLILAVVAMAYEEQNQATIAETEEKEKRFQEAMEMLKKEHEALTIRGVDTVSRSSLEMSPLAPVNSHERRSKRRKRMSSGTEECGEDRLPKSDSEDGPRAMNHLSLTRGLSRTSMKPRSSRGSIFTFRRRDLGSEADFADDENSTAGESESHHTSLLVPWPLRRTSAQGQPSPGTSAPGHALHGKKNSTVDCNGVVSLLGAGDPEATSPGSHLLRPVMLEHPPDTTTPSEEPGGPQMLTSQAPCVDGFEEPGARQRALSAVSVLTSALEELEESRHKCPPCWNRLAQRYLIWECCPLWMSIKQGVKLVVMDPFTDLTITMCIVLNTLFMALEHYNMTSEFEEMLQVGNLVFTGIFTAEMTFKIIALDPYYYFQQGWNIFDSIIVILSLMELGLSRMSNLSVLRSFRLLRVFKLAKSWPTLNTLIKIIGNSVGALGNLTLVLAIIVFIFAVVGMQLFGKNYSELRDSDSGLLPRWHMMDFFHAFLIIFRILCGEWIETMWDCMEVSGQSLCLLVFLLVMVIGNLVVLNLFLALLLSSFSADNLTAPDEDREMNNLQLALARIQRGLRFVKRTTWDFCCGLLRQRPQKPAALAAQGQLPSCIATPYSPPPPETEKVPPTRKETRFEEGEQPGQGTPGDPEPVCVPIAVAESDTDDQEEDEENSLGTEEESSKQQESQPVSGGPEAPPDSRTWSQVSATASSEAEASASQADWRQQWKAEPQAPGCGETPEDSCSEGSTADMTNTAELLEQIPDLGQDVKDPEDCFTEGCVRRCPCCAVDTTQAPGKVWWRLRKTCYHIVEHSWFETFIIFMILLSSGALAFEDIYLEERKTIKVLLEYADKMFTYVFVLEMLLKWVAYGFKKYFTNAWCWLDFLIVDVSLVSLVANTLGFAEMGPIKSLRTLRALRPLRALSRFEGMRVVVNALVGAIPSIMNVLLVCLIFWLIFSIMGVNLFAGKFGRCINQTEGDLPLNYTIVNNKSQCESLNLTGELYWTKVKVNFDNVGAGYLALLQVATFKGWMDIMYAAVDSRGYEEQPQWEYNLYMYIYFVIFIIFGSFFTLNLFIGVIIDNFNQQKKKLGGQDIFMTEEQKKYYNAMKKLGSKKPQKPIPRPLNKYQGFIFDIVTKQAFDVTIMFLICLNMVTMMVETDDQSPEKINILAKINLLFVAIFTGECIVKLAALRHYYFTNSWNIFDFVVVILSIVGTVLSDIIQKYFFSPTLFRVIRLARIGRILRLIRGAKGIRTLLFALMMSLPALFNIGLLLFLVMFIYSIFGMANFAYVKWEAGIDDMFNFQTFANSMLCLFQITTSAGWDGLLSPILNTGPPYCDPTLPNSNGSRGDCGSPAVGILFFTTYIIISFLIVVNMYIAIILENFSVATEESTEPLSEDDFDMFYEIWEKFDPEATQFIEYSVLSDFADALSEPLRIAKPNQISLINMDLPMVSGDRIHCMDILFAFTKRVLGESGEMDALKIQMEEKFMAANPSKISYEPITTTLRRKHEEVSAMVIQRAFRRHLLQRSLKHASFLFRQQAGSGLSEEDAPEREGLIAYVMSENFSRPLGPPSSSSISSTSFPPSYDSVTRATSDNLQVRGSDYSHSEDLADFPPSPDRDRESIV

On to “CyA-[Nle6;Pra17;Glu28]JzTx-V(1–29) (peptide)”, for which the NaV1.7 IC50 (nM), block of human NaV1.7 current, PatchXpress (PX) platform with human NaV1.7 [1] is 0.8 nM.
For Pra-[Nle6]JzTx-V(1–29) (peptide), the NaV1.7 IC50 (nM), block of human NaV1.7 current, PatchXpress (PX) platform in the data set with human NaV1.7 [1] amounted to 1.2 nM.
Usually IC50 stands for the concentration that gives 50% inhibition. Consider `CC[C@H](C)[C@H](NC(=O)[C@H](CCC(=O)O)NC(=O)[C@H](CCCCN)NC(=O)[C@H](CCCNC(=N)N)NC(=O)[C@@H]1CSSC[C@@H]2NC(=O)[C@H](C)NC(=O)[C@H](CCCNC(=N)N)NC(=O)[C@H](CCCCN)NC(=O)[C@H](CO)NC(=O)[C@H](CC(=O)O)NC(=O)[C@@H]3CSSC[C@H](NC(=O)[C@H](CCCNC(=N)N)NC(=O)[C@H](CC(C)C)NC(=O)CNC(=O)[C@H](CCC(=O)O)NC(=O)[C@H](CSSC[C@H](NC(=O)[C@@H](N)Cc4ccc(O)cc4)C(=O)N[C@@H](CCC(N)=O)C(=O)N[C@@H](CCCCN)C(=O)N[C@@H](Cc4c[nH]c5ccccc45)C(=O)N[C@@H](CCSC)C(=O)N[C@@H](Cc4c[nH]c5ccccc45)C(=O)N[C@@H]([C@@H](C)O)C(=O)N3)NC2=O)C(=O)N[C@@H](CCCCN)C(=O)N[C@@H](CC(C)C)C(=O)N[C@@H](Cc2c[nH]c3ccccc23)C(=O)N1)C(N)=O` [Peptide 1, [Glu28]JzTx-V(1–29)], for which the “selectivity for NaV1.7 over NaV1.4” value on human NaV1.4 [2] came out at 500 fold. At human NaV1.5 (human, read-out: Glu mutant IWQ IC50 NaV1.5), the IC50 was above 5000 nM.
Regarding “[Nle6;Pra11;Glu28]JzTx-V(1–29) (peptide)”, the NaV1.7 IC50 (nM), block of human NaV1.7 current, PatchXpress (PX) platform with human NaV1.7 [1] is 0.5 nM.
The same measure, in the same setting: in the case of [Pra1;Nle6;Glu28]JzTx-V(1–29) (peptide) it was 0.3 nM; in that of “[Nle6;Pra17;Glu28]JzTx-V(1–29) (peptide)”, 3.6 nM; in that of “[Nle6;Pra14;Glu28]JzTx-V(1–29) (peptide)”, 0.5 nM.
In the case of `CC[C@H](C)[C@H](NC(=O)[C@@H](NC(=O)[C@H](CCCCN)NC(=O)[C@H](CCCNC(=N)N)NC(=O)[C@@H]1CSSC[C@@H]2NC(=O)[C@H](C)NC(=O)[C@H](CCCNC(=N)N)NC(=O)[C@H](CCCCN)NC(=O)[C@H](CO)NC(=O)[C@H](CC(=O)O)NC(=O)[C@@H]3CSSC[C@H](NC(=O)[C@H](CCCNC(=N)N)NC(=O)[C@H](CC(C)C)NC(=O)CNC(=O)[C@H](CCC(=O)O)NC(=O)[C@H](CSSC[C@H](NC(=O)[C@@H](N)Cc4ccc(O)cc4)C(=O)N[C@@H](CCC(N)=O)C(=O)N[C@@H](CCCCN)C(=O)N[C@@H](Cc4c[nH]c5ccccc45)C(=O)N[C@@H](CCC(=O)O)C(=O)N[C@@H](Cc4c[nH]c5ccccc45)C(=O)N[C@@H]([C@@H](C)O)C(=O)N3)NC2=O)C(=O)N[C@@H](CCCCN)C(=O)N[C@@H](CC(C)C)C(=O)N[C@@H](Cc2c[nH]c3ccccc23)C(=O)N1)[C@@H](C)CC)C(N)=O` [M6 Glu mutant], the half-maximal inhibitory concentration (IC50) on human NaV1.5 (setting [5]), at human NaV1.4 [3] (setting [6]) and at human NaV1.7 [4] (setting [7]) was above 10000 nM each time.
Take `CC[C@H](C)[C@H](NC(=O)[C@@H](NC(=O)[C@H](CCCCN)NC(=O)[C@H](CCCNC(=N)N)NC(=O)[C@@H]1CSSC[C@@H]2NC(=O)[C@H](C)NC(=O)[C@H](CCCNC(=N)N)NC(=O)[C@H](CCCCN)NC(=O)[C@H](CO)NC(=O)[C@H](CC(=O)O)NC(=O)[C@@H]3CSSC[C@H](NC(=O)[C@H](CCCNC(=N)N)NC(=O)[C@H](CC(C)C)NC(=O)CNC(=O)[C@H](CCC(=O)O)NC(=O)[C@H](CSSC[C@H](NC(=O)[C@@H](N)Cc4ccc(O)cc4)C(=O)N[C@@H](CCC(N)=O)C(=O)N[C@@H](CCCCN)C(=O)N[C@@H](C)C(=O)N[C@@H](CCSC)C(=O)N[C@@H](Cc4c[nH]c5ccccc45)C(=O)N[C@@H]([C@@H](C)O)C(=O)N3)NC2=O)C(=O)N[C@@H](CCCCN)C(=O)N[C@@H](CC(C)C)C(=O)N[C@@H](Cc2c[nH]c3ccccc23)C(=O)N1)[C@@H](C)CC)C(N)=O` [W5 Ala mutant]: the concentration for half-maximal inhibition (IC50) at human NaV1.5 (setting [8]) is above 10000 nM; on human NaV1.4 [3] (setting [9]), above 10000 nM; at human NaV1.7 [4] (setting [10]) it was 1550 nM.
As to `CC[C@H](C)[C@H](NC(=O)[C@@H](NC(=O)[C@H](CCCCN)NC(=O)[C@H](CCCNC(=N)N)NC(=O)[C@@H]1CSSC[C@@H]2NC(=O)[C@H](C)NC(=O)[C@H](CCCNC(=N)N)NC(=O)[C@H](CCCCN)NC(=O)[C@H](CO)NC(=O)[C@H](CC(=O)O)NC(=O)[C@@H]3CSSC[C@H](NC(=O)[C@H](CCCNC(=N)N)NC(=O)[C@H](CC(C)C)NC(=O)CNC(=O)[C@H](CCC(=O)O)NC(=O)[C@H](CSSC[C@H](NC(=O)[C@@H](N)Cc4ccc(O)cc4)C(=O)N[C@@H](CCC(N)=O)C(=O)N[C@@H](CCCCN)C(=O)N[C@@H](Cc4c[nH]c5ccccc45)C(=O)N[C@@H](CCSC)C(=O)N[C@@H](Cc4c[nH]c5ccccc45)C(=O)N[C@@H]([C@@H](C)O)C(=O)N3)NC2=O)C(=O)N[C@@H](CCCCN)C(=O)N[C@@H](CC(C)C)C(=O)N[C@@H](CCC(=O)O)C(=O)N1)[C@@H](C)CC)C(N)=O` [W24 Glu mutant], the concentration for half-maximal inhibition (IC50) at human NaV1.5 (setting [5]) was above 10000 nM; at human NaV1.4 [3] (setting [6]) it was above 10000 nM; on human NaV1.7 [4] (setting [7]), 9900 nM.
Regarding `CC[C@H](C)[C@H](NC(=O)[C@@H](NC(=O)[C@H](C)NC(=O)[C@H](CCCNC(=N)N)NC(=O)[C@@H]1CSSC[C@@H]2NC(=O)[C@H](C)NC(=O)[C@H](CCCNC(=N)N)NC(=O)[C@H](CCCCN)NC(=O)[C@H](CO)NC(=O)[C@H](CC(=O)O)NC(=O)[C@@H]3CSSC[C@H](NC(=O)[C@H](CCCNC(=N)N)NC(=O)[C@H](CC(C)C)NC(=O)CNC(=O)[C@H](CCC(=O)O)NC(=O)[C@H](CSSC[C@H](NC(=O)[C@@H](N)Cc4ccc(O)cc4)C(=O)N[C@@H](CCC(N)=O)C(=O)N[C@@H](CCCCN)C(=O)N[C@@H](Cc4c[nH]c5ccccc45)C(=O)N[C@@H](CCSC)C(=O)N[C@@H](Cc4c[nH]c5ccccc45)C(=O)N[C@@H]([C@@H](C)O)C(=O)N3)NC2=O)C(=O)N[C@@H](CCCCN)C(=O)N[C@@H](CC(C)C)C(=O)N[C@@H](Cc2c[nH]c3ccccc23)C(=O)N1)[C@@H](C)CC)C(N)=O` [K27 Ala mutant], the values for the IC50 on human NaV1.5 (setting [8]), on human NaV1.4 [3] (setting [9]) and at human NaV1.7 [4] (setting [10]) were above 10000 nM, 2320 nM and 374 nM, respectively.
In the data set with human NaV1.7 [1], [Glu28]JzTx-V(1–29) (peptide) yielded a NaV1.7 IC50 (nM), block of human NaV1.7 current, PatchXpress (PX) platform of 0.6 nM.
Consider `CC[C@H](C)[C@H](NC(=O)[C@@H](NC(=O)[C@H](CCCCN)NC(=O)[C@H](CCCNC(=N)N)NC(=O)[C@@H]1CSSC[C@@H]2NC(=O)[C@H](C)NC(=O)[C@H](CCCNC(=N)N)NC(=O)[C@H](CCCCN)NC(=O)[C@H](CO)NC(=O)[C@H](CC(=O)O)NC(=O)[C@@H]3CSSC[C@H](NC(=O)[C@H](CCCNC(=N)N)NC(=O)[C@H](CC(C)C)NC(=O)CNC(=O)[C@H](CCC(=O)O)NC(=O)[C@H](CSSC[C@H](NC(=O)[C@@H](N)Cc4ccc(O)cc4)C(=O)N[C@@H](CCC(N)=O)C(=O)N[C@@H](CCCCN)C(=O)N[C@@H](Cc4c[nH]c5ccccc45)C(=O)N[C@@H](CCSC)C(=O)N[C@@H](Cc4c[nH]c5ccccc45)C(=O)N[C@@H]([C@@H](C)O)C(=O)N3)NC2=O)C(=O)N[C@@H](CCCCN)C(=O)N[C@@H](CC(C)C)C(=O)N[C@@H](C)C(=O)N1)[C@@H](C)CC)C(N)=O` [W24 Ala mutant], for which the concentration for half-maximal inhibition (IC50) at human NaV1.5 (setting [8]), at human NaV1.4 [3] (setting [9]) and at human NaV1.7 [4] (setting [10]) was above 10000 nM in each case.
